How the values were obtained:
[1] = system: subcutaneously pentetrazol-injected model (scPTZ); assay: Subcutaneously pentetrazol-injected model (scPTZ) test; type: in vivo, mice; conditions: pentetrazol 85 mg/kg s.c. after 1 hour; for responders at 100 mg/kg / responders at 50 mg/kg: Mus musculus, po, 1 h, Slc: ddY male mice, 3 per group, observed 30 minutes for clonic convulsion, read-out: scPTZ (positive number/tested number) (converted); for responders at 100 mg/kg: 100 mg/kg oral; for responders at 50 mg/kg: 50 mg/kg oral
How it was run: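 Pentetrazol (85 mg/kg, s.c.) was injected one hour after oral test compound at 50 or 100 mg/kg in groups of three male Slc:ddY mice weighing 20-30 g; vehicle controls got 0.5% tragacanth or 0.5% methylcellulose.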

[2] = system: maximum electroshock seizure (MES) model; assay: Maximum electroshock seizure (MES) model test; type: in vivo, mice; conditions: for responders at 100 mg/kg / responders at 50 mg/kg: Mus musculus, po, 1 h, Slc: ddY male mice, 3 per group, electrical stimulation 1 hour after administration, inhibition of hind limb extension, read-out: MES (positive number/tested number) (converted); for responders at 100 mg/kg: 100 mg/kg oral; for responders at 50 mg/kg: 50 mg/kg oral
How it was run: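 Tonic hind-limb extension was elicited by corneal electroshock (60 Hz, 25 mA, 0.2 s) 1 h after oral dosing. Test compounds were given at 50 or 100 mg/kg to groups of 3 male Slc: ddY mice (20-30 g), vehicle controls receiving 0.5% tragacanth or 0.5% methylcellulose solution.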

Row | Structure (SMILES) | responders at 100 mg/kg [1] [%] | responders at 100 mg/kg [2] [%] | responders at 50 mg/kg [1] [%] | responders at 50 mg/kg [2] [%] | anticonvulsant action in subcutaneously pentetrazol-injected model (scPTZ) test ([1]; mice, oral 50 or 100 mg/kg) | anticonvulsant action in maximum electroshock seizure (MES) model test ([2]; mice, oral 50 or 100 mg/kg, 1 hour after administration)
1 | NC(=O)C(F)(F)c1ccccc1-c1ccccc1F [Example 169] | 33.3 | 100 | – | – | – | –
2 | NC(=O)C(F)(F)c1ccccc1-c1cccc(F)c1 [Example 170, 2,2-difluoro-2-(3′-fluorobiphenyl-2-yl)acetamide] | 66.7 | 100 | 33.3 | 0 | – | –
3 | NC(=O)C(F)(F)c1ccccc1-c1cccc(Cl)c1 [Example 171, 2-(3′-chlorobiphenyl-2-yl)-2,2-difluoroacetamide] | 100 | 100 | 33.3 | 100 | – | –
4 | O=C(Cc1ccccc1-c1ccccc1F)NC1CC1 [Example 172] | 0 | 100 | – | – | – | –
5 | O=C(Cc1ccccc1-c1ccccc1F)NCC1CC1 [Example 173] | 0 | 33.3 | – | – | – | –
6 | NC(=O)C(F)(F)c1ccccc1-c1ccccc1 [Example 174, 2-(biphenyl-2-yl)-2,2-difluoroacetamide] | 66.7 | 100 | 33.3 | 100 | – | –
7 | CC(C(N)=O)c1ccccc1-c1cccc(F)c1 (stereo not drawn) [Example 175, 2-(3′-fluorobiphenyl-2-yl)propanamide] | 100 | 66.7 | 0 | 0 | – | –
8 | CNC(=O)C(C)c1ccccc1-c1cccc(F)c1 (stereo not drawn) [Example 176] | 0 | 33.3 | – | – | – | –
9 | CC(C(N)=O)c1ccccc1-c1cccc(Cl)c1 (stereo not drawn) [Example 177] | 33.3 | 0 | – | – | – | –
10 | NC(=O)C(O)c1ccccc1-c1ccc(F)cc1 (stereo not drawn) [Example 179] | 33.3 | 100 | – | 33.3 | – | –
11 | NC(=O)C(O)c1ccccc1-c1cccc(Cl)c1 (stereo not drawn) [Example 180] | 33.3 | 100 | – | 33.3 | – | –
12 | NC(=O)C(O)c1ccc(F)cc1-c1ccccc1 (stereo not drawn) [Example 181, 2-(5-fluorobiphenyl-2-yl)-2-hydroxyacetamide] | 66.7 | 100 | 0 | 33.3 | – | –
13 | NC(=O)C(O)c1ccc(F)cc1-c1cccc(F)c1 (stereo not drawn) [Example 182, 2-(3′,5-difluorobiphenyl-2-yl)-2-hydroxyacetamide] | 100 | 100 | 0 | 33.3 | – | –
14 | NC(=O)C(O)c1ccc(F)cc1-c1cc(Cl)cc(Cl)c1 (stereo not drawn) [Example 184, 2-(3′,5′-dichloro-5-fluorobiphenyl-2-yl)-2-hydroxyacetamide] | 66.7 | 100 | 33.3 | 66.7 | – | –
15 | NC(=O)C(O)c1cc(F)ccc1-c1ccccc1 (stereo not drawn) [Example 186, 2-(4-fluorobiphenyl-2-yl)-2-hydroxyacetamide] | 66.7 | 100 | 66.7 | 100 | anticonvulsant action was observed | anticonvulsant action was observed
16 | NC(=O)C(O)c1cc(F)ccc1-c1ccccc1F (stereo not drawn) [Example 187] | 0 | 100 | – | – | – | –
17 | NC(=O)C(O)c1cc(F)ccc1-c1cccc(F)c1 (stereo not drawn) [Example 188, 2-(3′,4-difluorobiphenyl-2-yl)-2-hydroxyacetamide] | 66.7 | 100 | 0 | 33.3 | – | –
18 | NC(=O)C(O)c1ccccc1-c1cc(F)cc(Cl)c1 (stereo not drawn) [Example 191, 2-(3′-chloro-5′-fluorobiphenyl-2-yl)-2-hydroxyacetamide] | 100 | 100 | 33.3 | 100 | – | –
19 | NC(=O)C(O)c1ccccc1-c1cc(F)ccc1F (stereo not drawn) [Example 192] | 33.3 | 100 | – | – | – | –
20 | NC(=O)C(O)c1ccccc1-c1cc(F)c(F)c(F)c1 (stereo not drawn) [Example 193, 2-hydroxy-2-(3′,4′,5′-trifluorobiphenyl-2-yl)acetamide] | 66.7 | 100 | 100 | 100 | – | –
21 | NC(=O)C(O)c1ccccc1-c1cc(Cl)ccc1F (stereo not drawn) [Example 194, 2-(5′-chloro-2′-fluorobiphenyl-2-yl)-2-hydroxyacetamide] | 66.7 | 100 | 33.3 | 33.3 | – | –
22 | NC(=O)C(O)c1ccccc1-c1ccc(Cl)c(C(F)(F)F)c1 (stereo not drawn) [Example 195] | 33.3 | 100 | – | – | – | –
23 | COC(C(N)=O)c1ccccc1-c1cccc(F)c1 (stereo not drawn) [Example 199] | 33.3 | 100 | – | 33.3 | – | –
24 | COC(C(N)=O)c1ccccc1-c1ccccc1F (stereo not drawn) [Example 200, 2-(2′-fluorobiphenyl-2-yl)-2-methoxyacetamide] | 66.7 | 100 | 33.3 | 0 | – | –
25 | CNC(=O)C(OC)c1ccccc1-c1ccccc1F (stereo not drawn) [Example 201, 2-(2′-fluorobiphenyl-2-yl)-2-methoxy-N-methylacetamide] | 66.7 | 66.7 | 33.3 | 33.3 | – | –
26 | COC(C(=O)N(C)C)c1ccccc1-c1ccccc1F (stereo not drawn) [Example 202, 2-(2′-fluorobiphenyl-2-yl)-2-methoxy-N,N-dimethylacetamide] | 100 | 66.7 | 0 | 33.3 | – | –
27 | COC(C(N)=O)c1ccccc1-c1ccc(F)cc1 (stereo not drawn) [Example 203, 2-(4′-fluorobiphenyl-2-yl)-2-methoxyacetamide] | 100 | 66.7 | 66.7 | 33.3 | – | –
28 | CNC(=O)C(OC)c1ccccc1-c1ccc(F)cc1 (stereo not drawn) [Example 204] | 0 | 100 | – | 0 | – | –
29 | COC(C(=O)N(C)C)c1ccccc1-c1ccc(F)cc1 (stereo not drawn) [Example 205, 2-(4′-fluorobiphenyl-2-yl)-2-methoxy-N,N-dimethylacetamide] | 66.7 | 100 | 33.3 | 0 | – | –
30 | COC(C(N)=O)c1ccccc1-c1cccc(Cl)c1 (stereo not drawn) [Example 206, 2-(3′-chlorobiphenyl-2-yl)-2-methoxyacetamide] | 66.7 | 66.7 | 0 | 33.3 | – | –

Source: patent US20120142771A1, “BIPHENYLACETAMIDE DERIVATIVE” (Dainippon Sumitomo Pharma Co., Ltd., priority 2008, published 2012)
